Data reported in patent US10442836B2, “1-(chloromethyl)-2,3-dihydro-1H-benzo[E]indole dimer antibody-drug conjugate compounds, and methods of use and treatment” (priority 2013, dated 2019).

B1: ADC 125: Thio Hu Anti-CD33 15G15.33 HC A118C-MC-MMED-(CBI dimer phos); linker-CBI intermediate 57 (conjugate)
VH: QVQLVQSGAEVKKPGSSVKVSCKASGGIFSNHAISWVRQAPGQGLEWMGGIIPIFGTANYAQKFQGRVTITADESTSTAFMELSSLRSEDTAVYYCAREWADVFDIWGQGTMVTVSS
VL: EIVLTQSPLSLPVTPGEPASISCRSSQSLLHSNGYNYLDWYLQKPGQSPQLLIYLGVNSVSGVPDRFSGSGSGTDFTLKISRVEAEDVGVYYCMQALQTPWTFGQGTKVEIK
B2: ADC 127: Thio Hu Anti-CD33 15G15.33 HC A118C-MC-ED-(CBI dimer DVB diphos); linker-CBI intermediate 66 (conjugate)
VH: QVQLVQSGAEVKKPGSSVKVSCKASGGIFSNHAISWVRQAPGQGLEWMGGIIPIFGTANYAQKFQGRVTITADESTSTAFMELSSLRSEDTAVYYCAREWADVFDIWGQGTMVTVSS
VL: EIVLTQSPLSLPVTPGEPASISCRSSQSLLHSNGYNYLDWYLQKPGQSPQLLIYLGVNSVSGVPDRFSGSGSGTDFTLKISRVEAEDVGVYYCMQALQTPWTFGQGTKVEIK
B3: ADC 129: Thio Hu Anti-CD33 15G15.33 HC A118C-MC-ED-(CBI dimer DVB phos); linker-CBI intermediate 68 (conjugate)
VH: QVQLVQSGAEVKKPGSSVKVSCKASGGIFSNHAISWVRQAPGQGLEWMGGIIPIFGTANYAQKFQGRVTITADESTSTAFMELSSLRSEDTAVYYCAREWADVFDIWGQGTMVTVSS
VL: EIVLTQSPLSLPVTPGEPASISCRSSQSLLHSNGYNYLDWYLQKPGQSPQLLIYLGVNSVSGVPDRFSGSGSGTDFTLKISRVEAEDVGVYYCMQALQTPWTFGQGTKVEIK

Test system: not given
Test: not given
Details: not given
For `CN(CCN(C)C(=O)Oc1cc2c(c3ccccc13)[C@H](CCl)CN2C(=O)CCCC(=O)N1C[C@@H](CCl)c2c1cc(OP(=O)(O)O)c1ccccc21)C(=O)CCCCCN1C(=O)C=CC1=O`, the melting point was 191 to 194 °C (dec.). Molecule `CN(CCN(C)C(=O)Oc1cc2c(c3ccccc13)[C@H](CCl)CN2C(=O)CCCC(=O)N1C[C@@H](CCl)c2c1cc(O)c1ccccc21)C(=O)CBr` has a melting point of 167 to 170 °C. For `CN1CCN(C(=O)Oc2cc3c(c4ccccc24)C(CCl)CN3C(=O)/C=C/c2ccc(/C=C/C(=O)N3C[C@@H](CCl)c4c3cc(OC(=O)N3CCN(C)CC3)c3ccccc43)cc2NC(=O)CCNC(=O)CCCCCN2C(=O)C=CC2=O)CC1` (stereo partly drawn), the melting point was 268 °C (dec.).

Test system: EOL-1 cells
Test: EOL-1 in vitro cell viability (CellTiter-Glo cell proliferation assay)
Format: cell-based, human
Details: EOL-1 in vitro cell viability at 3 days versus concentrations (μg/ml)
Text: The CellTiter-Glo® Luminescent Cell Viability Assay is a commercially available (Promega Corp., Madison, Wis.), homogeneous assay method based on the recombinant expression of Coleoptera luciferase (U.S. Pat. Nos. 5,583,024; 5,674,713; 5,700,670). This cell proliferation assay determines the number of viable cells in culture based on quantitation of the ATP present, an indicator of metabolically active cells (Crouch et al (1993) J. Immunol. Meth. 160:81-88; U.S. Pat. No. 6,602,677). The CellTiter-Glo® Assay was conducted in 96 well format, making it amenable to automated high-throughput screening (HTS) (Cree et al (1995) AntiCancer Drugs 6:398-404). The homogeneous assay procedure involves adding the single reagent (CellTiter-Glo® Reagent) directly to cells cultured in serum-supplemented medium. Cell washing, removal of medium and multiple pipetting steps are not required. The system detects as few as 15 cells/well in a 384-well format in 10 minutes after adding reagent and mixing. The cells may be treated continuously with ADC, or they may be treated and separated from ADC.
The homogeneous “add-mix-measure” format results in cell lysis and generation of a luminescent signal proportional to the amount of ATP present. The amount of ATP is directly proportional to the number of cells present in culture. […] Viable cells are reflected in relative luminescence units (RLU). […]
Efficacy of ADC was measured by a cell proliferation assay employing the following protocol ([…] GLO™ Luminescent Cell Viability Assay, Promega Corp. Technical Bulletin TB288; Mendoza et al (2002) Cancer Res. 62:5485-5488): • 1. […] The plate was incubated at room temperature for 10 minutes to stabilize the luminescence signal. • 8. Luminescence was recorded and reported in graphs as RLU=relative luminescence units. • Data are plotted as the mean of luminescence for each set of replicates, with standard deviation error bars. […]
With B1 the cell-killing activity was “modest dose response cell-killing activity”. With B2 the cell-killing activity was “potent, dose responsive cell-killing activity”. For B3, the cell-killing activity was “potent, dose responsive cell-killing activity”.
